{
  "source": "patent US20190233884A1",
  "about": "(University of Southern California, priority 2016, published 2019)",
  "test_system": "patients with refractory metastatic colorectal cancer (mCRC)",
  "test": "PFS, OS and disease control in the testing (validation) cohort of refractory mCRC patients receiving TAS-102 (n=129, Italy), by baseline characteristics, SNP genotype and toxicity",
  "type": "in vivo, human",
  "conditions": "validation cohort; for HR OS / HR PFS: univariate",
  "procedure": "All patients underwent the treatment in salvage-line setting. […]\n(§1) Genomic DNA was extracted from peripheral whole blood in patients of all cohorts using the QIAmp Kit (Qiagen, Valencia, Calif., USA) according to the manufacturer's protocol (www.qiagen.com). The candidate SNPs were genotyped using PCR-based direct DNA sequence analysis by ABI 3100A Capillary Genetic Analyzer and Sequencing Scanner v1.0 (Applied Biosystems). Amplification of extracted DNA was carried out using both forward and reverse primers for each gene polymorphism as shown in Table 1. […] The investigators analyzing SNPs were blinded to the clinical data of the study patients.\nThe primary endpoint in this study was progression-free survival (PFS), and the secondary endpoints were overall survival (OS) and disease control rate (DCR). PFS was calculated from the date of starting treatment to the first observation of disease progression or death from any cause. If a patient had no disease progression or death, PFS was censored at the date of last follow up. OS was calculated from the date of starting treatment until the date of death from any cause or the date of the last follow-up, at which point OS was censored. The disease control rate (DCR) was defined as the proportion of patients who achieved a stable disease (SD) or […] according to RECISTv1.1. Chi-square test was used to examine the difference in baseline patient characteristics among the three cohorts. Allelic distribution of all SNPs by ethnicity for deviation from Hardy-Weinberg equilibrium and the allelic frequencies of SNPs were tested using the Chi-square tests with one degree of freedom. The associations between candidate SNPs and disease control, and toxicities were examined using contingency tables and Fisher's exact test. The associations of SNPs with PFS and OS were analysed using Kaplan-Meier curves and the log-rank test. Because the true mode of inheritance of candidate SNPs was not established yet, a codominant or dominant genetic model if appropriate was considered.\nAll patients underwent the treatment in salvage-line setting. […] In all patients, adverse events were graded according to the Common Terminology Criteria for Adverse Events, version 4.0. […]\nas §1, with “tested” for “genotyped”, “Biosystems).” for “Biosystems). Amplification of extracted DNA was carried out using both forward and reverse primers for each gene polymorphism as shown in Table 1.”, “data.” for “data of the study patients.”\nThe primary endpoint in this study was progression-free survival (PFS), and the secondary endpoints were overall survival (OS) and disease control rate (DCR).",
  "key": {"[1]": {"conditions": "Performance status ECOG 1+ vs ECOG 0 (Ref.)"}, "[2]": {"conditions": "Pre-chemo numbers ≥4 vs <4 (Ref.)"}, "[3]": {"conditions": "Previous anti-EGFR No vs Yes (Ref.)"}, "[4]": {"conditions": "Previous anti-VEGF No vs Yes (Ref.)"}, "[5]": {"conditions": "Primary tumor resection No vs Yes (Ref.)"}, "[6]": {"conditions": "RAS status Mutant vs Wild type (Ref.)"}, "[7]": {"conditions": "Time to metastasis Metachronous"}},
  "data": [
    {"substance": "Trifluridine/tipiracil [TAS-102]", "values": [
      {"measurement": "HR OS", "setting": "[1]", "value": 2.15},
      {"measurement": "HR PFS", "setting": "[1]", "value": 1.43},
      {"measurement": "Median OS", "setting": "Peritoneal No", "value": 9.0, "unit": "months"},
      {"measurement": "Median PFS", "setting": "Peritoneal No", "value": 2.0, "unit": "months"},
      {"measurement": "HR OS", "setting": "Peritoneal No vs Yes (Ref.)", "value": 0.80},
      {"measurement": "HR PFS", "setting": "Peritoneal No vs Yes (Ref.)", "value": 0.74},
      {"measurement": "Median OS", "setting": "Peritoneal Yes", "value": 5.3, "unit": "months"},
      {"measurement": "Median PFS", "setting": "Peritoneal Yes", "value": 1.9, "unit": "months"},
      {"measurement": "Median OS", "setting": "Pre-chemo numbers <4", "value": 5.1, "unit": "months"},
      {"measurement": "Median PFS", "setting": "Pre-chemo numbers <4", "value": 1.9, "unit": "months"},
      {"measurement": "Median OS", "setting": "Pre-chemo numbers ≥4", "value": "8.7+ months"},
      {"measurement": "Median PFS", "setting": "Pre-chemo numbers ≥4", "value": 2.1, "unit": "months"},
      {"measurement": "HR OS", "setting": "[2]", "value": 0.57},
      {"measurement": "HR PFS", "setting": "[2]", "value": 0.66},
      {"measurement": "Median OS", "setting": "Previous anti-EGFR No", "value": 4.4, "unit": "months"},
      {"measurement": "Median PFS", "setting": "Previous anti-EGFR No", "value": 1.9, "unit": "months"},
      {"measurement": "HR OS", "setting": "[3]", "value": 2.63},
      {"measurement": "HR PFS", "setting": "[3]", "value": 1.53},
      {"measurement": "Median OS", "setting": "Previous anti-EGFR Yes", "value": "8.8+ months"},
      {"measurement": "Median PFS", "setting": "Previous anti-EGFR Yes", "value": 2.1, "unit": "months"},
      {"measurement": "Median OS", "setting": "Previous anti-VEGF No", "value": "6.6+ months"},
      {"measurement": "Median PFS", "setting": "Previous anti-VEGF No", "value": 2.8, "unit": "months"},
      {"measurement": "HR OS", "setting": "[4]", "value": 0.60},
      {"measurement": "HR PFS", "setting": "[4]", "value": 0.67},
      {"measurement": "Median OS", "setting": "Previous anti-VEGF Yes", "value": 5.5, "unit": "months"},
      {"measurement": "Median PFS", "setting": "Previous anti-VEGF Yes", "value": 2.0, "unit": "months"},
      {"measurement": "Median OS", "setting": "Primary tumor resection No", "value": 3.9, "unit": "months"},
      {"measurement": "Median PFS", "setting": "Primary tumor resection No", "value": 1.8, "unit": "months"},
      {"measurement": "HR OS", "setting": "[5]", "value": 1.87},
      {"measurement": "HR PFS", "setting": "[5]", "value": 2.13},
      {"measurement": "Median OS", "setting": "Primary tumor resection Yes", "value": 9.0, "unit": "months"},
      {"measurement": "Median PFS", "setting": "Primary tumor resection Yes", "value": 2.0, "unit": "months"},
      {"measurement": "Median OS", "setting": "Prior REGORA No", "value": 5.4, "unit": "months"},
      {"measurement": "Median PFS", "setting": "Prior REGORA No", "value": 2.0, "unit": "months"},
      {"measurement": "HR OS", "setting": "Prior REGORA No vs Yes (Ref.)", "value": 1.36},
      {"measurement": "HR PFS", "setting": "Prior REGORA No vs Yes (Ref.)", "value": 1.20},
      {"measurement": "Median OS", "setting": "Prior REGORA Yes", "value": "8.7+ months"},
      {"measurement": "Median PFS", "setting": "Prior REGORA Yes", "value": 2.0, "unit": "months"},
      {"measurement": "Median OS", "setting": "RAS status Mutant", "value": 5.1, "unit": "months"},
      {"measurement": "Median PFS", "setting": "RAS status Mutant", "value": 1.9, "unit": "months"},
      {"measurement": "HR OS", "setting": "[6]", "value": 1.48},
      {"measurement": "HR PFS", "setting": "[6]", "value": 1.21},
      {"measurement": "Median OS", "setting": "RAS status Wild type", "value": "8.8+ months"},
      {"measurement": "Median PFS", "setting": "RAS status Wild type", "value": 2.0, "unit": "months"},
      {"measurement": "Median OS", "setting": "Sex Female", "value": 5.3, "unit": "months"},
      {"measurement": "Median PFS", "setting": "Sex Female", "value": 2.1, "unit": "months"},
      {"measurement": "HR OS", "setting": "Sex Female vs Male (Ref.)", "value": 1.22},
      {"measurement": "HR PFS", "setting": "Sex Female vs Male (Ref.)", "value": 0.98},
      {"measurement": "Median OS", "setting": "Sex Male", "value": 9.0, "unit": "months"},
      {"measurement": "Median PFS", "setting": "Sex Male", "value": 1.9, "unit": "months"},
      {"measurement": "Median OS", "setting": "[7]", "value": "8.5+ months"},
      {"measurement": "Median PFS", "setting": "[7]", "value": 2.0, "unit": "months"},
      {"measurement": "HR OS", "setting": "Time to metastasis Metachronous vs Synchronous (Ref.)", "value": 0.59}
    ]}
  ]
}
